This assay relates to CD2F1 mice, L1210 leukemia ip, survival T/C. In words: NCI In Vivo Anticancer Drug Screen. Data for tumor model L1210 Leukemia (intraperitoneal) in CD2F1 (CDF1) mice. As to conditions: higher = longer survival. In outline: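 Tumor-bearing mice (transplanted tumor) were split into treated and vehicle control groups, and the measured endpoint of each treated group was divided by that of its vehicle controls.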

Setting [1] is: endpoint: mean survival time, dose: 100.0 mg/kg/injection, schedule: Q01DX001 (ip), vehicle: saline with Tween-80.
[2] abbreviates: endpoint: mean survival time, dose: 200.0 mg/kg/injection, schedule: Q01DX001 (ip), vehicle: saline with Tween-80.
Setting [3] is: endpoint: mean survival time, dose: 400.0 mg/kg/injection, schedule: Q01DX001 (ip), vehicle: saline with Tween-80.
Setting [4] is: endpoint: mean survival time, dose: 100.0 mg/kg/injection, schedule: Q01DX009 (ip), vehicle: saline with Tween-80.
Where [5] appears, read: endpoint: mean survival time, dose: 200.0 mg/kg/injection, schedule: Q01DX009 (ip), vehicle: saline with Tween-80.
Setting [6] is: endpoint: mean survival time, dose: 400.0 mg/kg/injection, schedule: Q01DX009 (ip), vehicle: saline with Tween-80.
Setting [7] is: endpoint: mean survival time, dose: 100.0 mg/kg/injection, schedule: Q04DX003 (ip), vehicle: saline with Tween-80.
[8] abbreviates: endpoint: mean survival time, dose: 200.0 mg/kg/injection, schedule: Q04DX003 (ip), vehicle: saline with Tween-80.
[9] abbreviates: endpoint: mean survival time, dose: 400.0 mg/kg/injection, schedule: Q04DX003 (ip), vehicle: saline with Tween-80.
Where [10] appears, read: endpoint: mean survival time, dose: 200.0 mg/kg/injection, schedule: Q01DX001 (ip), vehicle: saline.
Where [11] appears, read: endpoint: mean survival time, dose: 50.0 mg/kg/injection, schedule: Q01DX009 (ip), vehicle: saline with Tween-80.
Setting [12] is: endpoint: mean survival time, dose: 100.0 mg/kg/injection, schedule: Q04DX003 (ip), vehicle: saline.
[13] abbreviates: endpoint: mean survival time, dose: 12.5 mg/kg/injection, schedule: Q01DX009 (ip), vehicle: saline.

Toxic doses and inconclusive results are not listed.

On to `CC(=O)Nc1cc(C)c(C)cc1[N+](=O)[O-]`, for which the T/C runs as follows: under setting [1], 98 % of control; under setting [2], 101 % of control; under setting [3], 98 % of control.
With `ON=C1c2c(ccc3ccccc23)-c2ccc3ccccc3c21`, the T/C was 95 % of control under setting [1]; 98 % of control under setting [4]; 96 % of control under setting [2]; 95 % of control under setting [5]; 102 % of control under setting [3]; 93 % of control under setting [6].
Consider `O=c1cc[nH]c(=O)o1`, for which the T/C was 122 % of control (endpoint: mean survival time, dose: 42.0 mg/kg/injection, schedule: Q01DX009 (ip), vehicle: water); 114 % of control under setting [7]; 92 % of control under setting [8]; 87 % of control (endpoint: median survival time, dose: 63.0 mg/kg/injection, schedule: Q01DX009 (ip), vehicle: water).
Consider `CCC(C(=O)O)c1ccccc1` (stereo not given), for which the T/C was 97 % of control (endpoint: mean survival time, dose: 100.0 mg/kg/injection, schedule: Q04DX003 (ip), vehicle: saline sonified) and 101 % of control (endpoint: mean survival time, dose: 200.0 mg/kg/injection, schedule: Q04DX003 (ip), vehicle: saline sonified).
Regarding `Clc1ccc(N=C(Nc2ccc(Cl)cc2)c2ccccc2)cc1`, the T/C under setting [7] is 104 % of control, the T/C under setting [8] was 110 % of control and the T/C under setting [9] is 98 % of control.
For the compound `O=C1c2ccccc2C(=O)c2c(NCCNCCNCCO)ccc(NCCNCCNCCO)c21`, the T/C (endpoint: mean survival time, dose: 8.0 mg/kg/injection, schedule: Q01DX009 (ip), vehicle: acid diluted with saline) was 100 % of control; the T/C (endpoint: mean survival time, dose: 16.0 mg/kg/injection, schedule: Q01DX009 (ip), vehicle: acid diluted with saline) is 96 % of control; the T/C (endpoint: mean survival time, dose: 32.0 mg/kg/injection, schedule: Q01DX009 (ip), vehicle: acid diluted with saline) is 108 % of control; the T/C (endpoint: mean survival time, dose: 64.0 mg/kg/injection, schedule: Q01DX009 (ip), vehicle: acid diluted with saline) was 96 % of control.
Turning to `CCOC(=O)C1CC1C(=O)OCC` (stereo not given), the T/C under setting [4] is 88 % of control; the T/C under setting [7] was 100 % of control; the T/C under setting [5] was 104 % of control; the T/C under setting [8] is 96 % of control; the T/C under setting [6] is 100 % of control; the T/C under setting [9] is 103 % of control.
Take `CC1(CC(=O)O)NC(=O)NC1=O` (stereo not given): the T/C runs as follows: (endpoint: mean survival time, dose: 100.0 mg/kg/injection, schedule: Q01DX001 (ip), vehicle: saline) 102 % of control; (endpoint: mean survival time, dose: 100.0 mg/kg/injection, schedule: Q04DX002 (ip), vehicle: saline with Tween-80) 96 % of control; under setting [10], 97 % of control; (endpoint: mean survival time, dose: 200.0 mg/kg/injection, schedule: Q04DX002 (ip), vehicle: saline with Tween-80) 101 % of control; (endpoint: mean survival time, dose: 400.0 mg/kg/injection, schedule: Q01DX001 (ip), vehicle: saline) 100 % of control; (endpoint: mean survival time, dose: 400.0 mg/kg/injection, schedule: Q04DX002 (ip), vehicle: saline with Tween-80) 96 % of control.
For `CC(=O)N/C(=C\c1ccccc1)C(N)=O`, the T/C by setting is: under setting [4], 103 % of control; under setting [5], 95 % of control; under setting [6], 100 % of control.
The corresponding values for `CC(C)OC(=O)Nc1ccc(F)c(F)c1` are 95 % of control, 98 % of control and 114 % of control.
Turning to `COc1ccc2c(c1)c1c(C)c3cnccc3c(C)c1n2CCO`, the T/C is 112 % of control under setting [7] and 115 % of control under setting [8].
On to `O=C(O)CN(CCO)CCN(CC(=O)O)CC(=O)O`, for which the T/C is 102 % of control (endpoint: mean survival time, dose: 25.0 mg/kg/injection, schedule: Q01DX009 (ip), vehicle: saline with Tween-80); 108 % of control under setting [11]; 105 % of control under setting [4]; 104 % of control under setting [12].
Consider `CO[C@H]1/C=C/O[C@@]2(C)Oc3c(C)c(O)c4c(O)c(c(/C=N/N5C(C)CN(Cc6ccccc6)CC5C)c(O)c4c3C2=O)NC(=O)/C(C)=C\C=C\[C@H](C)[C@H](O)[C@@H](C)[C@@H](O)[C@@H](C)[C@H](OC(C)=O)[C@@H]1C` (stereo not given in full), for which the T/C under setting [11] is 96 % of control, the T/C under setting [4] is 100 % of control, the T/C under setting [5] was 96 % of control and the T/C under setting [8] was 90 % of control.
Turning to `CCN(CC)C(=O)c1cccc(COc2ccc(N3C(N)=NC(N)=NC3(C)C)cc2Cl)c1`, the T/C runs as follows: (endpoint: mean survival time, dose: 0.2 mg/kg/injection, schedule: Q01DX009 (ip), vehicle: saline) 98 % of control; (endpoint: mean survival time, dose: 0.4 mg/kg/injection, schedule: Q01DX009 (ip), vehicle: saline) 98 % of control; (endpoint: mean survival time, dose: 0.8 mg/kg/injection, schedule: Q01DX009 (ip), vehicle: saline) 100 % of control; (endpoint: mean survival time, dose: 1.56 mg/kg/injection, schedule: Q01DX009 (ip), vehicle: saline) 96 % of control; (endpoint: mean survival time, dose: 3.13 mg/kg/injection, schedule: Q01DX009 (ip), vehicle: saline) 100 % of control; (endpoint: mean survival time, dose: 6.25 mg/kg/injection, schedule: Q01DX009 (ip), vehicle: saline) 96 % of control. Besides, the T/C under setting [13] is 100 % of control.
As to `CC1OC1c1ccc(-c2ccc(C3OC3C)cc2)cc1` (stereo not given), the T/C (endpoint: mean survival time, dose: 150.0 mg/kg/injection, schedule: Q01DX Z (ip), vehicle: saline) is 101 % of control.
As to `CCOC(=O)C(=O)CC(=O)c1ccc(OC)cc1`, the T/C runs as follows: under setting [4], 98 % of control; under setting [7], 100 % of control; under setting [5], 96 % of control; under setting [8], 95 % of control; under setting [6], 101 % of control; under setting [9], 95 % of control.
As to `CCCCN(CCCC)CCCN(CCCOS(C)(=O)=O)CCCOS(C)(=O)=O`, the T/C reads like this: (endpoint: mean survival time, dose: 12.0 mg/kg/injection, schedule: Q01DX001 (ip), vehicle: saline) 110 % of control; under setting [13], 121 % of control; (endpoint: mean survival time, dose: 12.5 mg/kg/injection, schedule: Q04DX003 (ip), vehicle: saline) 110 % of control; (endpoint: mean survival time, dose: 25.0 mg/kg/injection, schedule: Q01DX001 (ip), vehicle: saline) 114 % of control; (endpoint: mean survival time, dose: 25.0 mg/kg/injection, schedule: Q04DX003 (ip), vehicle: saline) 117 % of control; (endpoint: mean survival time, dose: 50.0 mg/kg/injection, schedule: Q01DX009 (ip), vehicle: saline) 162 % of control. The T/C runs as follows: (endpoint: mean survival time, dose: 100.0 mg/kg/injection, schedule: Q01DX009 (ip), vehicle: saline) 102 % of control; under setting [12], 160 % of control; under setting [10], 90 % of control.
On to `COc1cc(C=O)ccc1OCc1ccccc1`, for which the T/C was 106 % of control under setting [7], 95 % of control under setting [8] and 113 % of control under setting [9].
Consider `CC(=O)/C(N=O)=C(/C)O`, for which the T/C runs as follows: under setting [2], 88 % of control; under setting [3], 92 % of control.
With `CC(C)C1CC2CCC3C(C)(C(=O)O)CCCC3(C)C2CC1CO` (stereo not given), the T/C reads like this: under setting [4], 87 % of control; under setting [5], 91 % of control; under setting [6], 86 % of control.
With `CCOC(=O)C(N)CSSCC(N)C(=O)OCC` (stereo not given), the T/C by setting is: under setting [12], 100 % of control; (endpoint: mean survival time, dose: 200.0 mg/kg/injection, schedule: Q04DX003 (ip), vehicle: saline) 102 % of control; (endpoint: mean survival time, dose: 400.0 mg/kg/injection, schedule: Q04DX003 (ip), vehicle: saline) 97 % of control.
With `C1CCC(NC2CCCCC2)CC1`, the T/C (endpoint: mean survival time, dose: 25.0 mg/kg/injection, schedule: Q01DX001 (ip), vehicle: saline with Tween-80) was 104 % of control; the T/C (endpoint: mean survival time, dose: 50.0 mg/kg/injection, schedule: Q01DX001 (ip), vehicle: saline with Tween-80) is 101 % of control; the T/C (endpoint: median survival time, dose: 25.0 mg/kg/injection, schedule: Q01DX009 (ip), vehicle: saline) was 94 % of control; the T/C (endpoint: median survival time, dose: 50.0 mg/kg/injection, schedule: Q01DX009 (ip), vehicle: saline) was 100 % of control; the T/C (endpoint: median survival time, dose: 100.0 mg/kg/injection, schedule: Q01DX009 (ip), vehicle: saline) was 94 % of control; the T/C (endpoint: median survival time, dose: 200.0 mg/kg/injection, schedule: Q01DX009 (ip), vehicle: saline) is 97 % of control. Also, the T/C (endpoint: median survival time, dose: 400.0 mg/kg/injection, schedule: Q01DX009 (ip), vehicle: saline) was 100 % of control.
In the case of `CCCCn1c(=O)cc(C(=O)O)c2ccccc21`, the T/C by setting is: under setting [4], 93 % of control; under setting [5], 97 % of control; under setting [6], 89 % of control.
Consider `O=CC1C2C=CCC12` (stereo not given), for which the T/C reads like this: (endpoint: mean survival time, dose: 100.0 mg/kg/injection, schedule: Q01DX009 (ip), vehicle: saline sonified) 102 % of control; under setting [7], 95 % of control; (endpoint: mean survival time, dose: 200.0 mg/kg/injection, schedule: Q01DX009 (ip), vehicle: saline sonified) 102 % of control; under setting [8], 95 % of control; (endpoint: mean survival time, dose: 400.0 mg/kg/injection, schedule: Q01DX009 (ip), vehicle: saline sonified) 91 % of control; under setting [9], 95 % of control.

Source of the values: PubChem BioAssay AID256 (DTP/NCI, 2004).
